According to patent US4053604A (priority 1975, dated 1977):
Values joined by “and” are separate entries in the source; they are usually repeats but may differ in a detail not shown here. Equal values may be shown once.

Experiments:
[1] = respiratory minute volume and mean arterial blood pressure in rats; type: in vivo
Procedure: These effects are less than those encountered with neuroleptics presently available for NLA as evidenced by laboratory experiments in rats in which these cardiovascular parameters are measured before and after the administration of Compound 1 and the neuroleptic agent droperidol, see Table 8.
The Effect of Compound 1 and Droperidol on Respiratory Minute Volume
and Mean Arterial Blood Pressure

[2] = tail-flick test, potentiation of the analgesic activity of phenoperidine; type: in vivo, albino mice
From the text: (§1) In the following experiments, phenoperidine and Compound I are used in the form of their hydrochloride salt and droperidol in the form of its free base in the presence of lactic acid for adjustment to pH to 3.4. Results are expressed on the basis of the form of the drug employed (i.e., free base or hydrochloride salt).
(§2) Results of such tests using albino mice are illustrated by tables 1,2 and 3 in which the neuroleptic agent, droperidol, is included for comparative purposes.
Potentiation of the Analgesic Activity (ED50) of Phenoperidine,
i.e. 0.5 mg/kg, by varying Doses of Neuroleptic Agents.
*PD50 refers to the dose of the neuroleptic which increased the
analgesic activity (ED50) of phenoperidine by 50%.
Modified Analgesic Activity of Phenoperidine in
the Presence of the Neuroleptic PD50. -
*ED50 refers to the analgesic activity of phenoperidine after
pretreatment with a fixed dose (PD50) of the neuroleptic agents.

[3] = tail-flick test, analgesic activity of the agent alone; type: in vivo, albino mice; details: for ED50: Mus musculus, ip, 0.25 h, i.p., dose which increased analgesia by 50% when tested 15 minutes after drug administration
From the text: as §1, §2
*The dose which increased analgesia by 50% when tested 15 minutes after […]

[4] = induction time of rats exposed to halothane anesthesia (loss of righting reflex); type: in vivo, male albino rats (Sprague-Dawley)
Procedure: (§3) The effects of Compound I on halothane-induced anesthesia were assessed using 20 rats for each dose or time interval determination. The experiments were performed on male albino rats (Sprague-Dawley) weighing from 180-220 g. A schematic representation of the apparatus used is illustrated in FIG. 1. The apparatus consists of a rectangular box made of transparent plastic (115 cm long × 28 cm high × 28 cm wide) which is divided into 4 equal chambers by perforated walls. The box rotates around a hollow axis through which gases can be delivered at several proportions from cylinders, through their respective flowmeters. An in-line halothane vaporizer is placed just before the gases reach the chambers. There is an air-tight door to every chamber through which two animals, one treated and one control, are introduced. The gases are delivered at one end of the box and suction is applied to the other end to take up the gases after flowing through the chambers. An in-line water manometer monitors the resulting pressure. This pressure is kept at 0-5 mm H2 O to make certain the gases in the anesthetic chambers remain at atmospheric pressure. The mixture of gases is delivered at a rate of 15 l/min. The inhalation anesthetic gases are delivered for ten minutes prior to the introduction of the animals into the chambers to assure an even distribution in the four chambers. The chambers rotate at four rev/min forcing the animals to tumble and allowing the experimenter to accurately time the loss and recovery of the righting reflex. Induction times are recorded as the time interval elapsed between the beginning of exposure of the animals to the gases and the moment in which they lose their righting reflex.
(§4) Groups of control animals (four at a time) were subjected to halothane concentrations ranging from 0.5 to 2.5% in a mixture of 95% O2 -5% CO2, and the induction times thus obtained were used to calculate concentration-reponse curves. Since a certain time elapsed between putting the first and the last rat into their respective chambers, each animal was timed separately with a stopwatch. […] This intermediate concentration of halothane was then used to study the effects of increasing doses of the test compound on the induction times and anesthesia times.
(§5) The animals were pretreated by administering the test compounds in dosages ranging from 10 to 500 μg/kg, i.v., at 5, 30, 60, 120, 240 and 360 minutes prior to their exposure to halothane. As soon as all animals lost their righting reflex, the O2 -halothane flow was discontinued and replaced by an equal flow of air. The animals were allowed to remain in the rotating chambers until they regained their righting reflex. Anesthesia times were determined as the interval between the time required to lose and the time to regain the righting reflex. Air flushing of the anesthetic chambers was performed after each determination and the entire procedure repeated with another group of animals for the determination of the effect of a new dose or concentration.
(§6) Drugs used in this study include: droperidol, phenoperidine hydrochloride, halothane and Compound I in the form of its hydrochloride salt. Phenoperidine hydrochloride and Compound I (hydrochloride) were dissolved separately in a warm solution of 0.9% sodium chloride. Droperidol was suspended in saline with the aid of a drop ot Tween 80 (Tween 80 is a registered trademark for a complex mixture of polyoxyethylene ethers of mixed partial oleic esters of sorbitol anhydride). Dosages are expressed in this study as the salt form of the compound where applicable. When the experimental protocol called for the concomitant administration of two drugs, these were mixed in the syringe and administered intravenously. The drugs were injected in a volume of 0.1 ml/100 g body weight.
(§7) The statistical analysis of the data was performed using Student's […]. […]

[5] = anesthesia time of rats exposed to halothane anesthesia (recovery of righting reflex); type: in vivo, male albino rats (Sprague-Dawley); details: phenoperidine hydrochloride 25 μg/kg, i.v.; in words
Procedure: as §3, §4, §5, §6, §7

[6] = behavioral changes and side effects in cebus monkeys; type: in vivo; details: for Behavioral Changes / Side Effects / Duration / Onset / times at which the side effect was observed: Phenoperidine, individual monkey

O=C(CCCN1CC=C(n2c(=O)[nH]c3ccccc32)CC1)c1ccc(F)cc1 [droperidol, reference compound]
Change in Mean B.P. as % of Control ([1]; 25 μg/kg): -28.4 ± 4.6 % of Control | Change in Minute Volume as % of Control ([1]; 25 μg/kg): +13.9 ± 3.0 % of Control | Change in Mean B.P. as % of Control ([1]; 100 μg/kg): -15.4 ± 5.9 % of Control | Change in Minute Volume as % of Control ([1]; 100 μg/kg): +15.6 ± 6.2 % of Control | Change in Mean B.P. as % of Control ([1]; 250 μg/kg): -26.9 ± 3.2 % of Control | Change in Minute Volume as % of Control ([1]; 250 μg/kg): +27.3 ± 8.1 % of Control | enhancement of analgesic activity of phenoperidine by concomitant administration ([2]; in words): significantly enhanced | relative potentiating activity, Compound I versus droperidol ([2]; in words): equiactive | PD50 of Neuroleptic Agent (dose which increased the analgesic activity (ED50) of phenoperidine by 50%) ([2]; mouse, in vivo, ip): 0.55 ± 0.10 mg/kg | ED50 [3]: > 30 mg/kg | analgesic activity when given alone ([3]; in words): no analgesic activity could be demonstrated

FC(F)(F)C(Cl)Br (centres unmarked) [halothane, reference compound]
induction time, halothane alone (average) ([4]; control experiments, 1% halothane in 95% O2-5% CO2): 2.4 min

CCOC(=O)C1(c2ccccc2)CCN(CCC(O)c2ccccc2)CC1 (centres unmarked) [phenoperidine, 1-(3-hydroxy-3-phenylpropyl)-4-phenylisonipecotic acid ethyl ester, reference compound]
effect on anesthesia time of rats anesthetized with halothane [5]: did not modify | effect on induction time of rats anesthetized with halothane ([4]; phenoperidine hydrochloride 25 μg/kg, i.v., in words): did not modify | undesirable side effects ([6]; 50-100 μg/kg, in words): salivation and vomiting were consistently observed | Behavioral Changes ([6]; 10 μg/kg i.v.): None | Side Effects ([6]; 10 μg/kg i.v.): None | Behavioral Changes ([6]; 50 μg/kg i.v.): Sedation and None | Duration ([6]; 50 μg/kg i.v.): 1 h and > 3 h | Onset ([6]; 50 μg/kg i.v.): 5 min | Side Effects ([6]; 50 μg/kg i.v.): Salivation and Vomit and None | times at which the side effect was observed ([6]; 50 μg/kg i.v.): 15 min and 10 to 15 min | times at which the side effect was observed ([6]; 100 μg/kg i.v., Vomit): 5 to 25 min and 20 to 45 min | Behavioral Changes ([6]; 100 μg/kg i.v.): Sedation | Duration ([6]; 100 μg/kg i.v.): 1 h | Onset ([6]; 100 μg/kg i.v.): 5 min | Side Effects ([6]; 100 μg/kg i.v.): Vomit | doses producing the main beneficial effect (sedation) and undesirable side effects ([6]; phenoperidine i.v.): 0.05 to 0.1 mg/kg | ED50 [3]: 0.5 ± 0.1 mg/kg
